Molecules are shown by their SMILES. pKi: −log10 of the molar value.

In this assay the test system is neuraminidase from Arthrobacter Sp. (Arthrobacter ureafaciens VR-1, NCIMB 40717), purified, molecular weight 55,000-60,000. As to the kind of experiment: Neuraminidase enzymatic activity and inhibition (thiobarbituric acid method, released NANA). The assay is classed as biochemical. The following applies: inhibition of the neuraminidase by NANA; GDia as substrate in the activity test. The procedure:
The enzymatic activity of the neuraminidase is determined at the saturation levels of the substrate concentration, corresponding to 5 times the Km value.
The released product is measured by employing the colorimetric technique (thiobarbituric acid method). For instance, when the neuraminidase enzyme and its substrate (a ganglioside like GDia) are incubated for 5-10 minutes and the NANA, hydrolyzed from the substrate, is employed for evaluating the enzymatic activity, the NANA released in the solution undergoes a series of reactions, in order to determine its actual amount.
Since NANA is also employed for obtaining the culture media of the steady state wherefrom the filtrate is extracted, a few check reactions are carried out, in order to ascertain that the measured NANA be the one coming from the reaction between enzyme and substrate and not the one coming as a residue from the original culture.
For instance, a few tests are carried out on 3 test-tubes, as reported hereinbelow. […]
In the first test-tube (S) there should be no NANA. Should NANA be retrieved in the second test-tube (B), its spectrophotometric reading is subtracted from the reading obtained from the reaction in test-tube three (E). The enzyme activity is therefore indirectly measured as the amount of hydrolized NANA per minute at pH 5.3 and at 37° C., using GDia as the substrate. […]

Consider `CC(=O)N[C@H]1[C@H]([C@H](O)[C@H](O)CO)OC(O)(C(=O)O)C[C@@H]1O` (stereo partly shown) [NANA, N-acetyl-neuraminic acid], for which the pKi was around 3.52.

The values above are taken from patent US5529918A, “Process for preparing neuraminidase” (Fidia S.p.A., priority 1991, dated 1996).
